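Assay format: 96-well plates, 48-hour exposure. The concentration for full growth arrest is given as TGI.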
Experiments:
Experiment in all cases: growth of human tumour cells (NCI), 48 h
SNB-75 CNS = tested on: SNB-75 CNS
SF-268 CNS = tested on: SF-268 CNS
HCT-116 colon = tested on: HCT-116 colon
K-562 leukemia = tested on: K-562 leukemia
SW-620 colon = tested on: SW-620 colon
SK-OV-3 ovarian = tested on: SK-OV-3 ovarian
BT-549 breast = tested on: BT-549 breast
M14 melanoma = tested on: M14 melanoma
RPMI-8226 leukemia = tested on: RPMI-8226 leukemia
DU-145 prostate = tested on: DU-145 prostate
UACC-257 melanoma = tested on: UACC-257 melanoma
SF-539 CNS = tested on: SF-539 CNS
OVCAR-4 ovarian = tested on: OVCAR-4 ovarian
PC-3 prostate = tested on: PC-3 prostate
MDA-MB-435 = tested on: MDA-MB-435
HS 578T breast = tested on: HS 578T breast
MCF7 breast = tested on: MCF7 breast
LOX IMVI melanoma = tested on: LOX IMVI melanoma
OVCAR-5 ovarian = tested on: OVCAR-5 ovarian
786-0 renal = tested on: 786-0 renal
NCI-H460 lung = tested on: NCI-H460 lung
SK-MEL-2 melanoma = tested on: SK-MEL-2 melanoma
SNB-19 CNS = tested on: SNB-19 CNS
KM12 colon = tested on: KM12 colon
HOP-92 NSCLC = tested on: HOP-92 NSCLC
OVCAR-8 ovarian = tested on: OVCAR-8 ovarian
CCRF-CEM leukemia = tested on: CCRF-CEM leukemia
HT29 colon = tested on: HT29 colon
NCI/ADR-RES ovarian = tested on: NCI/ADR-RES ovarian
HCT-15 colon = tested on: HCT-15 colon
MALME-3M melanoma = tested on: MALME-3M melanoma
SN12C renal = tested on: SN12C renal
UO-31 renal = tested on: UO-31 renal
A549 NSCLC = tested on: A549 NSCLC
CAKI-1 renal = tested on: CAKI-1 renal
NCI-H23 lung = tested on: NCI-H23 lung
MDA-N = tested on: MDA-N
SF-295 CNS = tested on: SF-295 CNS
IGROV1 ovarian = tested on: IGROV1 ovarian
NCI-H226 lung = tested on: NCI-H226 lung
A498 renal = tested on: A498 renal
T-47D breast = tested on: T-47D breast
ACHN renal = tested on: ACHN renal
HCC-2998 colon = tested on: HCC-2998 colon
TK-10 renal = tested on: TK-10 renal
EKVX NSCLC = tested on: EKVX NSCLC
OVCAR-3 ovarian = tested on: OVCAR-3 ovarian
HL-60(TB) leukemia = tested on: HL-60(TB) leukemia
COLO 205 colon = tested on: COLO 205 colon
MOLT-4 leukemia = tested on: MOLT-4 leukemia
SK-MEL-28 melanoma = tested on: SK-MEL-28 melanoma
SR leukemia = tested on: SR leukemia
HOP-62 NSCLC = tested on: HOP-62 NSCLC
UACC-62 melanoma = tested on: UACC-62 melanoma
U251 CNS = tested on: U251 CNS
MDA-MB-231 breast = tested on: MDA-MB-231 breast
SK-MEL-5 melanoma = tested on: SK-MEL-5 melanoma

## O=C(NC(CO)Cc1ccc(Oc2cc(CC(CO)NC(=O)OCc3ccccc3)ccc2OC(=O)OCc2ccccc2)cc1)OCc1ccccc1 (centres undefined)
SNB-75 CNS
  TGI: 51.1 µM
SF-268 CNS
  TGI: 88.9 µM
HCT-116 colon
  TGI: 40.7 µM
K-562 leukemia
  TGI: 46.7 µM
SW-620 colon
  TGI: > 100 µM
SK-OV-3 ovarian
  TGI: 69.8 µM
BT-549 breast
  TGI: 38.7 µM
M14 melanoma
  TGI: 55.1 µM
RPMI-8226 leukemia
  TGI: 31 µM
DU-145 prostate
  TGI: 51.3 µM
UACC-257 melanoma
  TGI: 29 µM
SF-539 CNS
  TGI: 38.5 µM
OVCAR-4 ovarian
  TGI: 65.3 µM
PC-3 prostate
  TGI: 32.7 µM
MDA-MB-435
  TGI: 45 µM
HS 578T breast
  TGI: 28.4 µM
MCF7 breast
  TGI: 26.8 µM
LOX IMVI melanoma
  TGI: 32.9 µM
OVCAR-5 ovarian
  TGI: > 100 µM
786-0 renal
  TGI: > 100 µM
NCI-H460 lung
  TGI: 38.9 µM
SK-MEL-2 melanoma
  TGI: 58.3 µM
SNB-19 CNS
  TGI: > 100 µM
KM12 colon
  TGI: 50.4 µM
HOP-92 NSCLC
  TGI: 54.3 µM
OVCAR-8 ovarian
  TGI: 40.6 µM
CCRF-CEM leukemia
  TGI: > 100 µM
HT29 colon
  TGI: > 100 µM
NCI/ADR-RES ovarian
  TGI: > 100 µM
HCT-15 colon
  TGI: > 100 µM
MALME-3M melanoma
  TGI: 31.5 µM
SN12C renal
  TGI: > 100 µM
UO-31 renal
  TGI: > 100 µM
A549 NSCLC
  TGI: > 100 µM
CAKI-1 renal
  TGI: > 100 µM
NCI-H23 lung
  TGI: 36.1 µM
MDA-N
  TGI: 50.3 µM
SF-295 CNS
  TGI: 35.2 µM
IGROV1 ovarian
  TGI: 46.6 µM
NCI-H226 lung
  TGI: 40.7 µM
A498 renal
  TGI: 50.2 µM
T-47D breast
  TGI: 23.1 µM
ACHN renal
  TGI: 62.7 µM
HCC-2998 colon
  TGI: 30.5 µM
TK-10 renal
  TGI: 54.1 µM
EKVX NSCLC
  TGI: 47.8 µM
OVCAR-3 ovarian
  TGI: 45 µM
HL-60(TB) leukemia
  TGI: 41.7 µM
COLO 205 colon
  TGI: 36 µM
MOLT-4 leukemia
  TGI: 22.4 µM
SK-MEL-28 melanoma
  TGI: 42.9 µM
SR leukemia
  TGI: 60.8 µM
HOP-62 NSCLC
  TGI: 52.6 µM

## COc1ccc(CCN=C2OCc3ccccc32)cc1OC
SNB-75 CNS
  TGI: > 100 µM
HCT-116 colon
  TGI: 71.3 µM
K-562 leukemia
  TGI: > 100 µM
SW-620 colon
  TGI: > 100 µM
SK-OV-3 ovarian
  TGI: > 100 µM
BT-549 breast
  TGI: > 100 µM
DU-145 prostate
  TGI: > 100 µM
UACC-257 melanoma
  TGI: > 100 µM
SF-539 CNS
  TGI: 63.2 µM
OVCAR-4 ovarian
  TGI: > 100 µM
UACC-62 melanoma
  TGI: > 100 µM
PC-3 prostate
  TGI: > 100 µM
MDA-MB-435
  TGI: > 100 µM
HS 578T breast
  TGI: > 100 µM
MCF7 breast
  TGI: 90.4 µM
LOX IMVI melanoma
  TGI: > 100 µM
786-0 renal
  TGI: > 100 µM
NCI-H460 lung
  TGI: > 100 µM
SK-MEL-2 melanoma
  TGI: > 100 µM
U251 CNS
  TGI: > 100 µM
SNB-19 CNS
  TGI: > 100 µM
KM12 colon
  TGI: > 100 µM
HOP-92 NSCLC
  TGI: > 100 µM
OVCAR-8 ovarian
  TGI: > 100 µM
CCRF-CEM leukemia
  TGI: > 100 µM
HT29 colon
  TGI: > 100 µM
NCI/ADR-RES ovarian
  TGI: > 100 µM
HCT-15 colon
  TGI: > 100 µM
MALME-3M melanoma
  TGI: > 100 µM
SN12C renal
  TGI: > 100 µM
UO-31 renal
  TGI: > 100 µM
A549 NSCLC
  TGI: > 100 µM
CAKI-1 renal
  TGI: > 100 µM
NCI-H23 lung
  TGI: > 100 µM
MDA-N
  TGI: > 100 µM
SF-295 CNS
  TGI: > 100 µM
IGROV1 ovarian
  TGI: > 100 µM
NCI-H226 lung
  TGI: > 100 µM
A498 renal
  TGI: > 100 µM
T-47D breast
  TGI: 86.6 µM
ACHN renal
  TGI: > 100 µM
MDA-MB-231 breast
  TGI: > 100 µM
HCC-2998 colon
  TGI: > 100 µM
TK-10 renal
  TGI: > 100 µM
EKVX NSCLC
  TGI: > 100 µM
HL-60(TB) leukemia
  TGI: 32.6 µM
COLO 205 colon
  TGI: > 100 µM
MOLT-4 leukemia
  TGI: > 100 µM
SK-MEL-28 melanoma
  TGI: > 100 µM
SR leukemia
  TGI: 62.3 µM
SK-MEL-5 melanoma
  TGI: > 100 µM
